From patent US9096624B2 (OSI Pharmaceuticals, LLC, priority 2009, dated 2015) come the findings set out here.

pIC50: −log10 of the molar value. Counter-ions that a name gives are not always drawn.

Chain of FAK (Q05397 whole entry): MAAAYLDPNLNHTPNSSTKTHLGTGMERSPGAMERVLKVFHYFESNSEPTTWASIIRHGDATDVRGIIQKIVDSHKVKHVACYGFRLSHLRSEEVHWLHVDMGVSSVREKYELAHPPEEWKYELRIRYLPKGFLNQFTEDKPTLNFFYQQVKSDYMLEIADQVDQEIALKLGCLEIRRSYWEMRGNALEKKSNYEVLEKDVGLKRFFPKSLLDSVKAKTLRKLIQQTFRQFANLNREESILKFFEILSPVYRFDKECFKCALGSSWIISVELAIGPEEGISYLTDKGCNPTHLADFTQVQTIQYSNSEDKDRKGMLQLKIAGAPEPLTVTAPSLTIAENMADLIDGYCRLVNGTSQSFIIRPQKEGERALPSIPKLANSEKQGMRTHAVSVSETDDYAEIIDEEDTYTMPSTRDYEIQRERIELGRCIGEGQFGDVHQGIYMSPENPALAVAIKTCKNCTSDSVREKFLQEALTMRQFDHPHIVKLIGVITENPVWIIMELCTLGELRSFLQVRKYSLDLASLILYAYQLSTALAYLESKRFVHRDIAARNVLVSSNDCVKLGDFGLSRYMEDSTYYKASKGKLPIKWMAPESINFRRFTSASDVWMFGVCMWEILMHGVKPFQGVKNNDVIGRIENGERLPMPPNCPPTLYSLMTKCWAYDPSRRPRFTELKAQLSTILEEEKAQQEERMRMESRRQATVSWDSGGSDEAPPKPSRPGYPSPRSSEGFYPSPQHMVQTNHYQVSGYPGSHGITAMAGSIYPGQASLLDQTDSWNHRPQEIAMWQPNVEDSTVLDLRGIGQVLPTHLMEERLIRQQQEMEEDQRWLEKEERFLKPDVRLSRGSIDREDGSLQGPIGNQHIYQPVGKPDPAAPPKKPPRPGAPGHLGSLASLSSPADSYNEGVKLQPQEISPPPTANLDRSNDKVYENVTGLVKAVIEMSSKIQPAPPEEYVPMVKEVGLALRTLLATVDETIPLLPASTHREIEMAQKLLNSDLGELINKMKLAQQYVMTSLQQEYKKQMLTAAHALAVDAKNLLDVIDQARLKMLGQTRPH

The test concerns the target FAK (Homo sapiens, UniProt Q05397). Briefly: biochemical.
In the case of `CCOP(=O)(Cc1ccc(Nc2ncc(C(F)(F)F)c(Nc3ccc(C(=O)OC)c4c3C(=O)N(C)C4)n2)cc1)OCC` [Example 118, Methyl 7-{[2-({4-[(diethoxyphosphoryl)methyl]phenyl}amino)-5-(trifluoromethyl)pyrimidin-4-yl]amino}-2-methyl-1-oxo-2,3-dihydro-1H-isoindole-4-carboxylate], the pIC50 was above 6.00.
The figure for `CCOP(=O)(O)Cc1ccc(Nc2ncc(C(F)(F)F)c(Nc3cccc4c3C(=O)N(C)C4)n2)c(OC)c1` [Example 120, Ethyl hydrogen [3-methoxy-4-({4-[(2-methyl-3-oxo-2,3-dihydro-1H-isoindol-4-yl)amino]-5-(trifluoromethyl)pyrimidin-2-yl}amino)benzyl]phosphonate] is above 6.00.
The figure for `CCOP(=O)(Cc1ccc(Nc2ncc(C(F)(F)F)c(Nc3ccc(N4CCN5CCOCC5C4)c4c3C(=O)N(C)C4)n2)cc1)OCC` (stereo not drawn) [Example 121, Diethyl (4-{[4-{[7-(hexahydropyrazino[2,1-c][1,4]oxazin-8(1H)-yl)-2-methyl-3-oxo-2,3-dihydro-1H-isoindol-4-yl]amino}-5-(trifluoromethyl)pyrimidin-2-yl]amino}benzyl)phosphonate] is above 6.00; for `CCOP(=O)(Cc1ccc(Nc2ncc(C(F)(F)F)c(Nc3ccc(N4CCN5CCOCC5C4)c4c3C(=O)N(C)C4)n2)c(OC)c1)OCC` (stereo not drawn) [Example 122, Diethyl (4-{[4-{[7-(hexahydropyrazino[2,1-c][1,4]oxazin-8(1H)-yl)-2-methyl-3-oxo-2,3-dihydro-1H-isoindol-4-yl]amino}-5-(trifluoromethyl)pyrimidin-2-yl]amino}-3-methoxybenzyl)phosphonate] it is above 6.00.
To `CCOP(=O)(Cc1ccc(Nc2ncc(C(F)(F)F)c(Nc3ccc(Br)c4ccn(C)c(=O)c34)n2)cc1)OCC` [Example 123, Diethyl [4-({4-[(5-bromo-2-methyl-1-oxo-1,2-dihydroisoquinolin-8-yl)amino]-5-(trifluoromethyl)pyrimidin-2-yl}amino)benzyl]phosphonate] belongs above 6.00.
In turn, `CCCn1cc(-c2ccc(Nc3nc(Nc4ccc(CP(=O)(OCC)OCC)cc4)ncc3C(F)(F)F)c(C(=O)NC)c2)cn1` [Example 126, Diethyl (4-{[4-{[2-(methylcarbamoyl)-4-(1-propyl-1H-pyrazol-4-yl)phenyl]amino}-5-(trifluoromethyl)pyrimidin-2-yl]amino}benzyl)phosphonate] had a pIC50 above 6.00.
To `CCOP(=O)(Cc1ccc(Nc2ncc(C(F)(F)F)c(Nc3ccc(-c4cnn(CC(C)(C)O)c4)cc3C(=O)NC)n2)cc1)OCC` [Example 127] belongs above 6.00.
The figure for `CCOP(=O)(Cc1cc(OC)c(Nc2ncc(C(F)(F)F)c(Nc3ccccc3C(=O)NC)n2)cc1F)OCC` [Example 130, Diethyl (2-fluoro-5-methoxy-4-{[4-{[2-(methylcarbamoyl)phenyl]amino}-5-(trifluoromethyl)pyrimidin-2-yl]amino}benzyl)phosphonate] is above 6.00; for `CCOP(=O)(OCC)C(O)c1ccc(Nc2ncc(C(F)(F)F)c(Nc3ccccc3C(=O)NC)n2)cc1` (stereo not drawn) [Example 133, Diethyl [hydroxy(4-{[4-{[2-(methylcarbamoyl)phenyl]amino}-5-(trifluoromethyl)pyrimidin-2-yl]amino}phenyl)methyl]phosphonate trifluoroacetate] it is above 6.00.
To `CCOP(=O)(Cc1ccc(Nc2ncc(C(F)(F)F)c(Nc3ccc(-c4cnn(CC(C)C)c4)cc3C(=O)NC)n2)cc1)OCC` [Example 134, Diethyl (4-{[4-({2-(methylcarbamoyl)-4-[1-(2-methylpropyl)-1H-pyrazol-4-yl]phenyl}amino)-5-(trifluoromethyl)pyrimidin-2-yl]amino}benzyl)phosphonate] belongs above 6.00; to `CCOP(=O)(Cc1ccc(Nc2ncc(C(F)(F)F)c(Nc3ccc(-c4cnn(C[C@H](O)CO)c4)cc3C(=O)NC)n2)cc1)OCC` [Example 135, Diethyl (4-{[4-{[4-{1-[(2S)-2,3-dihydroxypropyl]-1H-pyrazol-4-yl}-2-(methylcarbamoyl)phenyl]amino}-5-(trifluoromethyl)pyrimidin-2-yl]amino}benzyl)phosphonate], above 6.00.
Consider `CCOP(=O)(Cc1ccc(Nc2ncc(C(F)(F)F)c(Nc3ccc(-c4cnn(C5CC(O)C5)c4)cc3C(=O)NC)n2)cc1)OCC` (stereo not drawn) [Example 136, Diethyl (4-{[4-({4-[1-(3-hydroxycyclobutyl)-1H-pyrazol-4-yl]-2-(methylcarbamoyl)phenyl}amino)-5-(trifluoromethyl)pyrimidin-2-yl]amino}benzyl)phosphonate], for which the pIC50 is above 6.00.
The compound `CCOP(=O)(Cc1ccc(Nc2ncc(C(F)(F)F)c(Nc3ccc(-c4cnn(CCO)c4)cc3C(=O)NC)n2)cc1)OCC` [Example 145, Diethyl (4-{[4-({4-[1-(2-hydroxyethyl)-1H-pyrazol-4-yl]-2-(methylcarbamoyl)phenyl}amino)-5-(trifluoromethyl)pyrimidin-2-yl]amino}benzyl)phosphonate] showed a pIC50 above 6.00.
To `CCOP(=O)(Cc1cc(F)c(Nc2ncc(C(F)(F)F)c(Nc3ccccc3C(=O)NC)n2)c(OC)c1)OCC` [Example 146, Diethyl (3-fluoro-5-methoxy-4-{[4-{[2-(methylcarbamoyl)phenyl]amino}-5-(trifluoromethyl)pyrimidin-2-yl]amino}benzyl)phosphonate] belongs above 6.00; to `CCOP(=O)(Cc1ccc(Nc2ncc(C(F)(F)F)c(Nc3ccc(C#N)cc3C(=O)NC)n2)cc1)OCC` [Example 150, Diethyl (4-{[4-{[4-cyano-2-(methylcarbamoyl)phenyl]amino}-5-(trifluoromethyl)pyrimidin-2-yl]amino}benzyl)phosphonate], above 6.00.
In turn, `CCNC(=O)c1ccccc1Nc1nc(Nc2ccc(CP(=O)(OCC)OCC)cc2)ncc1C(F)(F)F` [Example 152, Diethyl (4-{[4-{[2-(ethylcarbamoyl)phenyl]amino}-5-(trifluoromethyl)pyrimidin-2-yl]amino}benzyl)phosphonate] gave a pIC50 above 6.00.
The figure for `CCNC(=O)c1ccccc1Nc1nc(Nc2ccc(CP(=O)(OCC)OCC)cc2OC)ncc1C(F)(F)F` [Example 153, Diethyl (4-{[4-{[2-(ethylcarbamoyl)phenyl]amino}-5-(trifluoromethyl)pyrimidin-2-yl]amino}-3-methoxybenzyl)phosphonate] is above 6.00; for `CCOP(=O)(Cc1ccc(Nc2ncc(C(F)(F)F)c(Nc3cccc4c3C(=O)N(C)C4C)n2)cc1)OCC` (stereo not drawn) [Example 157, Diethyl [4-({4-[(1,2-dimethyl-3-oxo-2,3-dihydro-1H-isoindol-4-yl)amino]-5-(trifluoromethyl)pyrimidin-2-yl}amino)benzyl]phosphonate] it is above 6.00; for `CCOC(c1ccc(Nc2ncc(C(F)(F)F)c(Nc3ccccc3C(=O)NC)n2)cc1)P(=O)(OCC)OCC` (stereo not drawn) [Example 159, Diethyl [ethoxy(4-{[4-{[2-(methylcarbamoyl)phenyl]amino}-5-(trifluoromethyl)pyrimidin-2-yl]amino}phenyl)methyl]phosphonate] it is above 6.00.
The compound `CCOP(=O)(OCC)C(OC)c1ccc(Nc2ncc(C(F)(F)F)c(Nc3ccccc3C(=O)NC)n2)cc1` (stereo not drawn) [Example 160, Diethyl [methoxy(4-{[4-{[2-(methylcarbamoyl)phenyl]amino}-5-(trifluoromethyl)pyrimidin-2-yl]amino}phenyl)methyl]phosphonate] gave a pIC50 above 6.00.
As for `CCOP(=O)(Cc1ccc(Nc2ncc(C(F)(F)F)c(Nc3ccc(C#N)c4c3C(=O)N(C)C4)n2)cc1)OCC` [Example 161, Diethyl [4-({4-[(7-cyano-2-methyl-3-oxo-2,3-dihydro-1H-isoindol-4-yl)amino]-5-(trifluoromethyl)pyrimidin-2-yl}amino)benzyl]phosphonate], the pIC50 is above 6.00.
In turn, `CCOP(=O)(Cc1ccc(Nc2ncc(C(F)(F)F)c(Nc3ccc(C#N)c4c3C(=O)N(C)C4)n2)c(OC)c1)OCC` [Example 162, Diethyl [4-({4-[(7-cyano-2-methyl-3-oxo-2,3-dihydro-1H-isoindol-4-yl)amino]-5-(trifluoromethyl)pyrimidin-2-yl}amino)-3-methoxybenzyl]phosphonate] had a pIC50 above 6.00.
The figure for `CCOP(=O)(Cc1ccc(Nc2ncc(C(F)(F)F)c(Nc3ccc(-c4cnn(CCOC)c4)cc3C(=O)NC)n2)cc1)OCC` [Example 163, Diethyl (4-{[4-({4-[1-(2-methoxyethyl)-1H-pyrazol-4-yl]-2-(methylcarbamoyl)phenyl}amino)-5-(trifluoromethyl)pyrimidin-2-yl]amino}benzyl) phosphonate] is above 6.00; for `CCOP(=O)(Cc1ccc(Nc2ncc(C(F)(F)F)c(Nc3ccc([C@H]4CC[C@H](OCC)CC4)c4c3C(=O)N(C)C4)n2)c(OC)c1)OCC` [Example 170, Diethyl (4-{[4-{[7-(trans-4-ethoxycyclohexyl)-2-methyl-3-oxo-2,3-dihydro-1H-isoindol-4-yl]amino}-5-(trifluoromethyl)pyrimidin-2-yl]amino}-3-methoxybenzyl)phosphonate] it is above 6.00.
To `CCOP(=O)(Cc1ccc(Nc2ncc(C(F)(F)F)c(Nc3ccc([C@H]4CC[C@H](O)CC4)cc3C(=O)N(C)C)n2)cc1)OCC` [Example 173, Diethyl (4-{[4-{[2-(dimethylcarbamoyl)-4-(trans-4-hydroxycyclohexyl)phenyl]amino}-5-(trifluoromethyl)pyrimidin-2-yl]amino}benzyl)phosphonate] belongs above 6.00; to `CCOP(=O)(Cc1ccc(Nc2ncc(C(F)(F)F)c(Nc3ccccc3C(=O)N3CCN(C)CC3)n2)cc1)OCC` [Example 177, Diethyl (4-{[4-({2-[(4-methylpiperazin-1-yl)carbonyl]phenyl}amino)-5-(trifluoromethyl)pyrimidin-2-yl]amino}benzyl)phosphonate], above 6.00; to `CCOP(=O)(Cc1ccc(Nc2ncc(C(F)(F)F)c(Nc3ccccc3C(=O)N3CCCC3)n2)c(OC)c1)OCC` [Example 178, Diethyl (3-methoxy-4-{[4-{[2-(pyrrolidin-1-ylcarbonyl)phenyl]amino}-5-(trifluoromethyl)pyrimidin-2-yl]amino}benzyl)phosphonate], above 6.00.
